Source: patent US20050043271A1, “Heparin-containing ophthalmic agent” (priority 2001, published 2005)

Key:
mast cells = conditions: without direct antihistamine effect; inhalative and intravenous application; cited from earlier work
[1] = tested on: allergically caused conjunctival inflammation; conditions: high-dosage, topical application to the eye, animals; cited from earlier work
[2] = tear film tearing time (fluorescein, slit lamp); format: in vivo; conditions: concentration of 0.1% by weight to 0.3% by weight
Text: A further diagnostic parameter in regard to diagnosis of the “dry eye” syndrome is the tear film tearing time which makes it possible to provide information about the quality of the tear fluid. In that case for example the tear film is dyed with fluorescein and the patient is then asked to keep the eyes open as long as possible without a blink reflex. A slit lamp is then used to establish when the tear film tears open for the first time. If the period of time is less than 10 seconds, there is the suspicion of the “dry eye” syndrome.

[3] = tested on: cornea epithelium cells of rabbits; assay: epithelium cell migration; format: cell-based; conditions: 0.1% by weight solution
dry eyes = assay: subjective feeling of patients in treatment of dry eyes; format: in vivo; conditions: 0.1% by weight in the composition
Text: Aqueous sodium hyaluronate solutions are fluids with non-Newtonian flow properties. By virtue of that physical property, aqueous sodium hyaluronate solutions are excellently well suited as slip and lubricating agents with a good cling effect and a prolonged residence time on the conjunctival and corneal epithelia, without adversely affecting visual efficiency.

heparin
degranulation, caused by antigens, of mast cells (mast cells): inhibits degranulation | treatment of allergically caused conjunctival inflammation [1]: effective

hyaluronic acid
prolonging the tear film tearing time [2]: highly effective

sodium hyaluronate
epithelium cell migration [3]: increased epithelium cell migration | subjective feeling of the patients (dry eyes): considerably improves
